From ChEMBL document CHEMBL2440076, “New triarylpyrazoles as broad-spectrum anticancer agents: design, synthesis, and biological evaluation” (Eur J Med Chem, 2013)

What was measured:
MOLT-4 = assay: Growth inhibition of human MOLT4 cells after 48 hrs by sulforhodamine B assay; format: functional; conditions: MOLT-4, 48 h
LOX IMVI = assay: Growth inhibition of human LOXIMVI cells assessed as cell growth at 10 uM after 48 hrs by sulforhodamine B assay; format: functional; conditions: read-out: Activity
NCI-H23 = assay: Growth inhibition of human NCI-H23 cells after 48 hrs by sulforhodamine B assay; format: functional; conditions: NCI-H23, 48 h
Malme-3M = assay: Growth inhibition of human MALME-3M cells after 48 hrs by sulforhodamine B assay; format: functional
[1] = Growth inhibition of human Hs 578T cells after 48 hrs by sulforhodamine B assay; format: functional
[2] = Growth inhibition of human Hs 578T cells assessed as cell growth at 10 uM after 48 hrs by sulforhodamine B assay; format: functional; conditions: read-out: Activity
HCT-116 = assay: Growth inhibition of human HCT116 cells after 48 hrs by sulforhodamine B assay; format: functional; conditions: HCT-116, 48 h
MDA-MB-231 = assay: Growth inhibition of human MDA-MB-231 cells after 48 hrs by sulforhodamine B assay; format: functional; conditions: MDA-MB-231, 48 h
A549 [3] = assay: Growth inhibition of human A549/ATCC cells after 48 hrs by sulforhodamine B assay; format: functional; conditions: A549, 48 h
NCI-H322M [4] = assay: Growth inhibition of human NCI-H322M cells assessed as cell growth at 10 uM after 48 hrs by sulforhodamine B assay; format: functional; conditions: read-out: Activity
SF-268 = assay: Growth inhibition of human SF268 cells assessed as cell growth at 10 uM after 48 hrs by sulforhodamine B assay; format: functional; conditions: SF-268, 48 h, read-out: Activity
UACC-62 = assay: Growth inhibition of human UACC62 cells assessed as cell growth at 10 uM after 48 hrs by sulforhodamine B assay; format: functional; conditions: UACC-62, 48 h, read-out: Activity
SNB-19 [5] = assay: Growth inhibition of human SNB19 cells after 48 hrs by sulforhodamine B assay; format: functional; conditions: SNB-19, 48 h
SN12C = assay: Growth inhibition of human SN12C cells assessed as cell growth at 10 uM after 48 hrs by sulforhodamine B assay; format: functional; conditions: read-out: Activity
MDA-MB-435 = assay: Growth inhibition of human MDA-MB-435 cells assessed as cell growth at 10 uM after 48 hrs by sulforhodamine B assay; format: functional; conditions: MDA-MB-435, 48 h, read-out: Activity
PC-3 = assay: Growth inhibition of human PC3 cells after 48 hrs by sulforhodamine B assay; format: functional, cell-based; conditions: PC-3, 48 h
NCI-H460 = assay: Growth inhibition of human NCI-H460 cells assessed as cell growth at 10 uM after 48 hrs by sulforhodamine B assay; format: functional; conditions: NCI-H460, 48 h, read-out: Activity
RXF 393 [6] = assay: Growth inhibition of human RXF393 cells assessed as cell growth at 10 uM after 48 hrs by sulforhodamine B assay; format: functional; conditions: RXF 393, 48 h, read-out: Activity
IGROV-1 = assay: Growth inhibition of human IGROV1 cells after 48 hrs by sulforhodamine B assay; format: functional; conditions: IGROV-1, 48 h
SNB-19 [7] = assay: Growth inhibition of human SNB19 cells assessed as cell growth at 10 uM after 48 hrs by sulforhodamine B assay; format: functional; conditions: SNB-19, 48 h, read-out: Activity
TK-10 = assay: Growth inhibition of human TK10 cells assessed as cell growth at 10 uM after 48 hrs by sulforhodamine B assay; format: functional; conditions: TK-10, 48 h, read-out: Activity
HL-60(TB) = assay: Growth inhibition of human HL-60(TB) cells assessed as cell growth at 10 uM after 48 hrs by sulforhodamine B assay; format: functional; conditions: HL-60, 48 h, read-out: Activity
SF-539 = assay: Growth inhibition of human SF539 cells assessed as cell growth at 10 uM after 48 hrs by sulforhodamine B assay; format: functional; conditions: SF-539, 48 h, read-out: Activity
BT-549 = assay: Growth inhibition of human BT549 cells assessed as cell growth at 10 uM after 48 hrs by sulforhodamine B assay; format: functional; conditions: BT-549, 48 h, read-out: Activity
OVCAR-5 = assay: Growth inhibition of human OVCAR5 cells after 48 hrs by sulforhodamine B assay; format: functional; conditions: OVCAR-5, 48 h
A549 [8] = assay: Growth inhibition of human A549/ATCC cells assessed as cell growth at 10 uM after 48 hrs by sulforhodamine B assay; format: functional; conditions: A549, 48 h, read-out: Activity
RXF 393 [9] = assay: Growth inhibition of human RXF393 cells after 48 hrs by sulforhodamine B assay; format: functional; conditions: RXF 393, 48 h
NCI-H322M [10] = assay: Growth inhibition of human NCI-H322M cells after 48 hrs by sulforhodamine B assay; format: functional
U-251 = assay: Growth inhibition of human U251 cells after 48 hrs by sulforhodamine B assay; format: functional; conditions: U-251, 48 h
786-0 = assay: Growth inhibition of human 786-0 cells assessed as cell growth at 10 uM after 48 hrs by sulforhodamine B assay; format: functional; conditions: 786-0, 48 h, read-out: Activity
MDA-MB-468 = assay: Growth inhibition of human MDA-MB-468 cells after 48 hrs by sulforhodamine B assay; format: functional, cell-based; conditions: MDA-MB-468, 48 h
HT-29 = assay: Growth inhibition of human HT-29 cells after 48 hrs by sulforhodamine B assay; format: functional; conditions: HT-29, 48 h
SF-295 = assay: Growth inhibition of human SF295 cells after 48 hrs by sulforhodamine B assay; format: functional, cell-based; conditions: SF-295, 48 h
SK-MEL-5 = assay: Growth inhibition of human SK-MEL-5 cells assessed as cell growth at 10 uM after 48 hrs by sulforhodamine B assay; format: functional; conditions: SK-MEL-5, 48 h, read-out: Activity
[11] = read-out: LC50 (the source's name)

## O=C(Nc1cccc(-n2cc(-c3ccncc3)c(-c3ccc(Cl)c(O)c3)n2)c1)Nc1cc(C(F)(F)F)cc(C(F)(F)F)c1
MOLT-4
  GI50: 1.15 µM
  TGI: 4.36 µM
MOLT-4; [11]
  CC50: > 50 µM
LOX IMVI
  growth at 10 µM: -94.1%
NCI-H23
  GI50: 1.02 µM
  LC50: 18.2 µM
  TGI: 3.27 µM
Malme-3M
  GI50: 0.939 µM
  LC50 (concentration killing 50% of starting cells): 23.5 µM
  TGI: 3.03 µM
[1]
  GI50: 1.14 µM
  TGI: 4.08 µM
[1]; [11]
  CC50: > 50 µM
[2]
  growth at 10 µM: -26%
HCT-116
  GI50: 0.428 µM
  TGI: 1.11 µM
HCT-116; [11]
  CC50: 2.65 µM
MDA-MB-231
  GI50: 0.739 µM
  LC50: 3.72 µM
  TGI: 1.66 µM
A549 [3]
  GI50: 0.298 µM
  LC50 (concentration killing 50% of starting cells): 11.4 µM
  TGI: 1.69 µM
NCI-H322M [4]
  growth at 10 µM: 5.11%
SF-268
  growth at 10 µM: -36.4%
UACC-62
  growth at 10 µM: -65.6%
SNB-19 [5]
  GI50: 0.983 µM
  LC50 (concentration killing 50% of cells): > 50 µM
  TGI: 8.96 µM
SN12C
  growth at 10 µM: -36.1%
MDA-MB-435
  growth at 10 µM: -31.1%
PC-3
  GI50: 0.319 µM
  IC50: 0.32 µM
  TGI: 4.37 µM
PC-3; [11]
  CC50: > 50 µM
NCI-H460
  growth at 10 µM: -55.7%
RXF 393 [6]
  growth at 10 µM: -66.7%
IGROV-1
  GI50: 0.896 µM
  LC50 (concentration killing 50% of cells): 38.2 µM
  TGI: 3.55 µM
SNB-19 [7]
  growth at 10 µM: 11.3%
TK-10
  growth at 10 µM: -24.6%
HL-60(TB)
  growth at 10 µM: -18.3%
SF-539
  growth at 10 µM: -63%
BT-549
  growth at 10 µM: -36%
OVCAR-5
  GI50: 0.875 µM
  LC50 (concentration killing 50% of cells): 4.7 µM
  TGI: 2.03 µM
A549 [8]
  growth at 10 µM: -32.5%
RXF 393 [9]
  GI50: 0.937 µM
  LC50 (concentration killing 50% of cells): 10.7 µM
  TGI: 2.49 µM
NCI-H322M [10]
  GI50: 1.31 µM
  TGI: 5.39 µM
NCI-H322M [10]; [11]
  CC50: 23.6 µM
U-251
  GI50: 0.463 µM
  LC50 (concentration killing 50% of cells): 2.8 µM
  TGI: 1.17 µM
786-0
  growth at 10 µM: -46.8%
MDA-MB-468
  GI50: 0.265 µM
  IC50: 0.27 µM
  TGI: 2.66 µM
MDA-MB-468; [11]
  CC50: 37.1 µM
HT-29
  GI50: 0.746 µM
  TGI: 1.87 µM
HT-29; [11]
  CC50: 4.67 µM
SF-295
  GI50: 0.618 µM
  IC50: 0.62 µM
  TGI: 1.65 µM
SF-295; [11]
  CC50: 4.39 µM
SK-MEL-5
  growth at 10 µM: -94.7%
